Measured values reported in ChEMBL document CHEMBL5244271, “Targeted Drugs for Treatment of Pulmonary Arterial Hypertension: Past, Present, and Future Perspectives” (J Med Chem, 2020).
pIC50: −log10 of the molar value.

Tests used:
[1] = Activation of rabbit sGC assessed as induction of preconstricted aortic ring relaxation; details: Oryctolagus cuniculus
[2] = Half life in human; assay type: ADME
[3] = Tmax in human; assay type: ADME
[4] = Tmax in po dosed human; assay type: ADME, organism-based; details: in vivo
[5] = Half life in po dosed human; assay type: ADME, organism-based; details: in vivo
Endothelin-1 receptor = biological target: T1, Endothelin-1 receptor (Homo sapiens, UniProt P25101); experiment: Binding affinity to recombinant human ETA
T1 sequence (P25101 whole entry): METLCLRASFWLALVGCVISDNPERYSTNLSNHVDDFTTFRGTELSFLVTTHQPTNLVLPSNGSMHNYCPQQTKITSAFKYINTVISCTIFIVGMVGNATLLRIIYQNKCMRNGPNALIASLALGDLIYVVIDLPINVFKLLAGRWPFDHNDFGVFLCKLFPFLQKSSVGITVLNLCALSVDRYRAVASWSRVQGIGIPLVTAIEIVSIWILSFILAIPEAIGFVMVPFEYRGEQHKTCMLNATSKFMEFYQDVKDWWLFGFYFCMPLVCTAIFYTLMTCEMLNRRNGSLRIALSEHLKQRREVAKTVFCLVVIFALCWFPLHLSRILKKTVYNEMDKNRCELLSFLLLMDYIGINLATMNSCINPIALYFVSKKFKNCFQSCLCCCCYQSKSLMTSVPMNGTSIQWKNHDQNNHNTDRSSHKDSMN

[6] = biological target: T2, Endothelin receptor type B (Homo sapiens, UniProt P24530); experiment: Binding affinity to human placenta ETB; assay type: tissue-based
T2 sequence (P24530 whole entry): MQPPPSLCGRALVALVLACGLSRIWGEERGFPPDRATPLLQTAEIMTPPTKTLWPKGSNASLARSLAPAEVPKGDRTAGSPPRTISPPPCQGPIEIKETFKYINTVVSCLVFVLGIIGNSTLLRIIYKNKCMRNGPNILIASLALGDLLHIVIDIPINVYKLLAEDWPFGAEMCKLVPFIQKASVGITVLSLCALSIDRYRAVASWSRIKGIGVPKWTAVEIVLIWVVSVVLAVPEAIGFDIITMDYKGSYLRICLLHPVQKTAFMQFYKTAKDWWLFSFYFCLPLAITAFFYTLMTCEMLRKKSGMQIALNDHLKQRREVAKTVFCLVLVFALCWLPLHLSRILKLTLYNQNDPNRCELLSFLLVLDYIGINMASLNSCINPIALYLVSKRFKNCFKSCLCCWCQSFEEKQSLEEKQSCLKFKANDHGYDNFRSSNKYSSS

pIC50 [1] | half-life [2] | Compound | other results
– | 17.5 h | CN1CC(=O)N2[C@H](c3ccc4c(c3)OCO4)c3[nH]c4ccccc4c3C[C@@H]2C1=O | –
5.00 | – | OCc1ccc(-c2nn(Cc3ccccc3)c3ccccc23)o1 | –
– | 12.3 h | CCCOc1ccc(S(=O)(=O)NCCC2CCCN2C)cc1-c1nc2c(CCC)nn(C)c2c(=O)[nH]1 (stereo not drawn) | Tmax [3]: 0.8 h
5.77 | – | OCc1ccc(-c2nn(Cc3ccccc3F)c3ncccc23)o1 | –
– | 30 h | NC(=O)[C@](O)(CNc1nc(-c2cc(-c3ccon3)n(Cc3ccccc3F)n2)ncc1F)C(F)(F)F [OLINCIGUAT] | Tmax [3]: 2 h
6.57 | – | Nc1ccnc(-c2nn(Cc3ccccc3F)c3ncccc23)n1 | –
5.31 | – | OCc1ccc(-c2nn(Cc3ccccc3F)c3ccccc23)o1 | –
– | – | O=S(=O)(Nc1ncnc(OCCO)c1-c1ccccc1)c1ccc(C(F)(F)F)cc1 | pIC50 (Endothelin-1 receptor): 4.74; pIC50 [6]: 5.70
6.52 | – | Nc1nc(-c2nn(Cc3ccccc3F)c3ncccc23)ncc1C1CC1 | –
– | 24 h | O=C(O)COC[C@H]1CC[C@H](COC(=O)N(c2ccccc2)c2ccc(Cl)cc2)CC1 | –
– | 24 h | OC(CNc1nc(-c2cc(-c3ccon3)n(Cc3ccccc3F)n2)ncc1F)(C(F)(F)F)C(F)(F)F | –

Compound | pIC50 [1] | half-life [2] | other results
Nc1nc(-c2nn(Cc3ccccc3F)c3ncccc23)nc(N)c1N1CCOCC1 | 7.00 | – | –
COC(=O)N(C)c1c(N)nc(-c2nn(Cc3ccccc3F)c3ncccc23)nc1N [RIOCIGUAT] | 6.92 | – | Tmax [4]: 0.5 h; half-life [5]: 5 h
